# Laboratory results taken from US20200325178A1, “PEPTIDE NUCLEIC ACID MOLECULES FOR TREATMENT OF GRAM POSITIVE BACTERIAL INFECTION” (priority 2017, published 2020).
# Columns and labels:
# [1] = Single ascending intravenous dose tolerability (MTD) in mice; type: in vivo; settings: 10 mg/kg single intravenous bolus dose
# Protocol: Single ascending intravenous (IV) dose study was performed to determine tolerability of the drug in mice.
# Initially, Compound I-HCl and Compound IV-HCl were administered with a 10 mg/kg intravenous bolus dose using a 10 mL/kg dose volume (0.2 mL) and observed the effects before proceeding to the next higher dose. […] However, higher concentration (>15 mg/kg) had shown adverse effect and death in mice within 30 mins of administration of the drug.
# [2] = system: MRSA clinical isolates and ATCC strains; experiment: MIC and MBC against MRSA clinical isolates and ATCC strains; type: cell-based, Staphylococcus aureus; set-up: unit not given here
# Protocol: Bioscreen-C instrument was used to detect the MIC and MBC of PNA-CPP derivatives against S. aureus MRSA strains. Different concentration of PNA-CPP derivatives were prepared in 10 mM of sodium bicarbonate buffer pH-7.4 and added to ˜5.0 Log 10 CFUs in a Honey comb Bioscreen-C plate.
# After the growth curve assays, the number of colony forming units (CFU) were counted to determine the MIC and MBC of each PNA-CPP derivative against MRSA.
# Minimum inhibitory concentration (MIC) analyses were performed as described in Clinical and Laboratory Standards Institute, Methods for Dilution Antimicrobial Susceptibility Tests for Bacteria that Grow Aerobically, 7th ed.; Approved Standard M7-A7; CLSI: Wayne, Pa., USA, 2006; volume 26, No. 2. […] MIC was determined as the lowest concentration of agent that inhibits bacterial growth detected at A420-580 nm.
# MRSA = experiment: In vitro assay of emergence of resistance, MRSA, 8 days; type: cell-based, S. aureus; settings: 6.25 μg (twice MBC) in one ml Mueller Hinton broth, 37° C., through Day 8
# Protocol: To determine the development of resistance in MRSA and MSSA strains against Compound I-HCl and Compound IV-HCl, an in vitro assay was performed. Twice the amount of MBC of Compound I-HCl (6.25 μg) and Compound IV-HCl (6.25 μg) were mixed with ˜5.0 log 10 CFUs in one ml of Mueller Hinton broth and incubated for 8 days at 37° C. Eight tubes of culture were used for each drug and bacterial strains. At 24 hours of interval, culture tubes were centrifuged and spent media were replaced with fresh media in presence of Compound I-HCl and Compound IV-HCl and further incubated to observe the growth of S. aureus strains. At 24 hours interval, one set of culture tube exposed to drugs were selected and a fraction of the culture used to plate on agar plates to observe the reduction of CFU counts as compared to untreated control. The rest of the culture samples were allowed to grow without any drug for additional 24 hours to observe the growth of S. aureus strains. One set of culture tubes without drug was used as the positive control.
# S. aureus MSSA strains = experiment: Bioscreen-C dose response growth curve of MSSA over 24 hours; type: cell-based, Staphylococcus aureus; settings: HCl salts, doses from 100 μg downwards, 10 mM sodium bicarbonate buffer pH-7.4, OD 420-580 nm
# Protocol: Bioscreen-C instrument was used to detect the MIC and MBC of PNA-CPP derivatives against S. aureus MSSA strains. Different concentrations of PNA-CPP derivatives were prepared in 10 mM of sodium bicarbonate buffer pH-7.4 and added to ˜5.0 Log 10 CFUs in a Honey comb Bioscreen-C plate.
# Compound I-V were assayed against MSSA. FIG. 12-16 show a dose response growth curve of MSSA in presence of increasing concentrations of Compound I-HCl (FIG. 12), Compound II-HCl (FIG. 13), Compound III-HCl (FIG. 14), Compound IV-HCl (FIG. 15), and Compound V-HCl (FIG. 16), determined in a Bioscreen-C spectrophotometer.
# [3] = system: S. aureus (ATCC BAA-1556); experiment: Murine thigh infection model; type: in vivo; settings: for Mean Log 10 CFU/Thigh / Mean Log 10 Change vs. 1 hr / Mean Log 10 Change vs. 24 hr (vehicle): neutropenic CD-1 mice, 10 mg/kg, 0.2 ml IV, 24 hrs
# Protocol: Female 5-6 week old CD-1 (18-22 gm) were used in this study. Mice were quarantined for 48 hours before use and housed in groups of 5 with free access to food and water during the study.
# The animals were made neutropenic by administration of cyclophosphamide on Days −4 and −1. On Days −4 150 mg/kg of cyclohsphamide administered by intraperitoneal route and 100 mg/kg was administered on Days −1. Days listed are referenced from the date of infection (study day-Day 0).
# On Day 0, animals were inoculated intramuscularly (0.1 ml/thigh) with ˜1×10^5 CFU/mouse of S. aureus (ATCC BAA-1556) into right thigh. […] Group-3 of mice were administered with vancomycin at 25 mg/kg via subcutaneous route. Group-4 of mice administered with buffer and group-5 used as the inoculation control.
# Mice were euthanized by CO2 inhalation and thighs were removed, and placed in 2 ml of sterile PBS, homogenized, serially diluted and plated to determine the CFU counts. Plates were incubated 18-24 hours and CFUs were counted.
# Colony were counted and the number of colonies is converted to CFU/thigh by multiplying the number of colonies by the volume of the thigh homogenate spotted and the dilution at which the colonies were counted (5-50 colonies/spot). All count data were transformed into logo CFU/thigh for calculation of means and standard deviations.
substance,measurement,setting,value
"Compound I: PNA-CPP conjugate: PNA cgt cat acg cgg tcc (SEQ ID NO: 51), AEEA linker, CPP BXRXRRXRRXRRXR; FIG. 1 (CGTCATACGCGGTCC; all peptide nucleic acid (PNA); cell-penetrating peptide attached via AEEA linker, further chemistry not fully specified)",tolerability in mice,[1],well tolerated
same,MBC,[2]; isolate MRSA#1,1.56
same,MIC,[2]; isolate MRSA#1,0.78
same,MBC,[2]; isolate MRSA#3,3.25
same,MIC,[2]; isolate MRSA#3,1.56
same,MBC,[2]; isolate MRSA#6,1.56/1.56
same,MIC,[2]; isolate MRSA#6,1.56/1.56
same,MBC,[2]; isolate MRSA#15,3.25/3.25
same,MIC,[2]; isolate MRSA#15,3.25/3.25
same,MBC,[2]; isolate MRSA#28,3.25/3.25
same,MIC,[2]; isolate MRSA#28,3.25/3.25
same,MBC,[2]; isolate MRSA#31,3.25/3.25
same,MIC,[2]; isolate MRSA#31,3.25/3.25
same,MBC,[2]; isolate MRSA#37,3.25
same,MIC,[2]; isolate MRSA#37,1.56
same,MBC,[2]; isolate MRSA#39,3.25/3.25
same,MIC,[2]; isolate MRSA#39,3.25/3.25
same,MBC,[2]; isolate MRSA#42,1.56/1.56
same,MIC,[2]; isolate MRSA#42,1.56/1.56
same,MBC,[2]; isolate MRSA#43,3.25
same,MIC,[2]; isolate MRSA#43,1.56
same,MBC,[2]; strain USA 300,3.25
same,MIC,[2]; strain USA 300,1.56
same,MRSA CFU counts and emergence of resistant strains,MRSA,reduced MRSA CFUs without emergence of resistant strains
same,lowest dose at which no MSSA growth was observed (growth curve),S. aureus MSSA strains,3.13 µg
same,reduction in CFU counts compared to Vancomycin positive control treatment,"[3]; administered at 1 and 13 hours or at 1, 9, and 17 hours",comparable or improved reduction in CFU counts
same,Mean Log 10 CFU/Thigh,[3]; +1 & 13 hrs,4.46 Log 10 CFU/Thigh
same,Mean Log 10 Change vs. 1 hr,[3]; +1 & 13 hrs,−1.16 Log 10
same,Mean Log 10 Change vs. 24 hr (vehicle),[3]; +1 & 13 hrs,−4.07 Log 10
same,Mean Log 10 CFU/Thigh,"[3]; +1, +9, & +17 hrs",3.46 Log 10 CFU/Thigh
same,Mean Log 10 Change vs. 1 hr,"[3]; +1, +9, & +17 hrs",−2.16 Log 10
same,Mean Log 10 Change vs. 24 hr (vehicle),"[3]; +1, +9, & +17 hrs",−5.07 Log 10
